Results reported in patent publication US8188139B2, “Heterocyclic-substituted phenyl methanones” (Hoffman-La Roche Inc., priority 2005, dated 2012).

What follows are compounds tested against T1, mGlyT-1b (Mus musculus, UniProt P28571) (assay: Glycine uptake inhibition assay (mGlyT-1b)). Details: inhibition of [3H]-glycine uptake in Flp-in-CHO cells transfected with mGlyT-1b cDNA; 20 min preincubation at 22° C.; read-out: IC50 (μM) at GlyT-1.
T1 construct: host or cells: Flp-in-CHO
T1 sequence (P28571 1-651 isoform P28571-2): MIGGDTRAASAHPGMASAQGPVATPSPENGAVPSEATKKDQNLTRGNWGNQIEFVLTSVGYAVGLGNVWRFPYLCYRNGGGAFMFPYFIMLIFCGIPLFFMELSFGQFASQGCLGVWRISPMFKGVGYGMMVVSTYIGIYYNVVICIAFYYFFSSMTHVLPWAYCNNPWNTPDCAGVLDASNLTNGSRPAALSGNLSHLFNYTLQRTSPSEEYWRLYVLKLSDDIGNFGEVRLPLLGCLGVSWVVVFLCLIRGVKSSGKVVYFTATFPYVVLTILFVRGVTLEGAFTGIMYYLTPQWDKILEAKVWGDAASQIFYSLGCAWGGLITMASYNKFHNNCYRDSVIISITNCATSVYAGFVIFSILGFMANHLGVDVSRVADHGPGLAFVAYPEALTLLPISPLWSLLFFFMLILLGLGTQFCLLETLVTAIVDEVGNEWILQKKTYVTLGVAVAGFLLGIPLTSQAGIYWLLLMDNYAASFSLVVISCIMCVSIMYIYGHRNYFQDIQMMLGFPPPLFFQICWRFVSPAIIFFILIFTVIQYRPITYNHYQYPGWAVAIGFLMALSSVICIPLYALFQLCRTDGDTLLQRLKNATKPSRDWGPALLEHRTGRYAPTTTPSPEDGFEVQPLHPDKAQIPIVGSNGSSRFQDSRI
Type: cell-based
Procedure: DMEM complete medium: Nutrient mixture F-12 (Gibco Life-technologies), fetal bovine serum (FBS) 5%, (Gibco life technologies), Penicillin/Streptomycin1% (Gibco life technologies), Hygromycin 0.6 mg/ml (Gibco life technologies), Glutamine 1 mM Gibco life technologies)
Uptake buffer (UB): 150 mM NaCl, 10 mM Hepes-Tris, pH 7.4, 1 mM CaCl2, 2.5 mM KCl, 2.5 mM MgSO4, 10 mM (+) D-glucose.
Flp-in™-CHO (Invitrogen Cat n^o R758-07) cells stably transfected with mGlyT1b cDNA.
Glycine Uptake Inhibition Assay (mGlyT-1b)
On day 1 mammalian cells, (Flp-in™-CHO), transfected with mGlyT-1b cDNA, were plated at the density of 40,000 cells/well in complete F-12 medium, without hygromycin in 96-well culture plates. On day 2, the medium was aspirated, and the cells were washed twice with uptake buffer (UB). The cells were then incubated for 20 min at 22° C. with either (i) no potential competitor, (ii) 10 mM non-radioactive glycine, (iii) a concentration of a potential inhibitor. A range of concentrations of the potential inhibitor was used to generate data for calculating the concentration of inhibitor resulting in 50% of the effect (e.g. IC50, the concentration of the competitor inhibiting glycine uptake of 50%). A solution was then immediately added containing [^3H]-glycine 60 nM (11-16 Ci/mmol) and 25 μM non-radioactive glycine. The plates were incubated with gentle shaking, and the reaction was stopped by aspiration of the mixture and washing (three times) with ice-cold UB. The cells were lysed with scintillation liquid, shaken 3 hours, and the radioactivity in the cells was counted using a scintillation counter.

Question: With `CC(Oc1ccc(S(C)(=O)=O)cc1C(=O)N1Cc2cc(Cl)c(Cl)cc2C1)C(F)(F)F` (racemic) [Example 9, rac-(5,6-Dichloro-1,3-dihydro-isoindol-2-yl)-[5-methanesulfonyl-2-(2,2,2-trifluoro-1-methyl-ethoxy)-phenyl]-methanone] as the compound, how does the IC50 read?
Answer: 0.031 µM

Question: Which IC50 does the source give for `C[C@H](Oc1ccc(S(C)(=O)=O)cc1C(=O)N1Cc2ccc(C3CCCOC3)cc2C1)C(F)(F)F` (mixture of isomers) [Example 312, [5-Methanesulfonyl-2-((S)-2,2,2-trifluoro-1-methyl-ethoxy)-phenyl]-[5-(tetrahydro-pyran-3-yl)-1,3-dihydro-isoindol-2-yl]-methanone] here?
Answer: 0.032 µM

Question: For `C[C@H](Oc1ccc(S(C)(=O)=O)cc1C(=O)N1Cc2cc(Cl)c(C3CCOC3)cc2C1)C(F)(F)F` (mixture of isomers) [Example 359, [5-Chloro-6-(tetrahydro-furan-3-yl)-1,3-dihydro-isoindol-2-yl]-[5-methanesulfonyl-2-((S)-2,2,2-trifluoro-1-methyl-ethoxy)-phenyl]-methanone], which IC50 is on record?
Answer: 0.01 µM

Question: For `CC(C)Oc1ccc(S(C)(=O)=O)cc1C(=O)N1Cc2ccc(C3CCOC3)cc2C1` (racemic) [Example 360, rac-(2-Isopropoxy-5-methanesulfonyl-phenyl)-[5-(tetrahydro-furan-3-yl)-1,3-dihydro-isoindol-2-yl]-methanone], which IC50 is on record?
Answer: 0.022 µM

Question: How did the IC50 turn out when `CS(=O)(=O)c1ccc(OCC(F)(F)C(F)(F)F)c(C(=O)N2Cc3ccc(C4CCOC4)cc3C2)c1` (racemic) [Example 361, rac-[5-Methanesulfonyl-2-(2,2,3,3,3-pentafluoro-propoxy)-phenyl]-[5-(tetrahydro-furan-3-yl)-1,3-dihydro-isoindol-2-yl]-methanone] was run?
Answer: 0.002 µM

Question: For `CS(=O)(=O)c1ccc(OCC(F)(F)C(F)(F)F)c(C(=O)N2Cc3ccc(C4CCCOC4)cc3C2)c1` (racemic) [Example 364, rac-[5-Methanesulfonyl-2-(2,2,3,3,3-pentafluoro-propoxy)-phenyl]-[5-(tetrahydro-pyran-3-yl)-1,3-dihydro-isoindol-2-yl]-methanone], which IC50 is on record?
Answer: 0.005 µM

Question: How did the IC50 turn out when `CC(C)Oc1ccc(S(C)(=O)=O)cc1C(=O)N1Cc2cc(Cl)c(Cl)cc2C1` [Example 5, (5,6-Dichloro-1,3-dihydro-isoindol-2-yl)-(2-isopropoxy-5-methanesulfonyl-phenyl)-methanone] was run?
Answer: 0.042 µM

Question: With `C[C@H](Oc1ccc(S(C)(=O)=O)cc1C(=O)N1Cc2ccc(C(F)(F)F)cc2C1)C(F)(F)F` [Example 15, [5-Methanesulfonyl-2-((S)-2,2,2-trifluoro-1-methyl-ethoxy)-phenyl]-(5-trifluoromethyl-1,3-dihydro-isoindol-2-yl)-methanone] as the compound, how does the IC50 read?
Answer: 0.021 µM

Question: With `CC(C)Sc1ccc(S(C)(=O)=O)cc1C(=O)N1Cc2cc(Cl)c(Cl)cc2C1` [Example 16, (5,6-Dichloro-1,3-dihydro-isoindol-2-yl)-(2-isopropylsulfanyl-5-methanesulfonyl-phenyl)-methanone] as the compound, how does the IC50 read?
Answer: 0.048 µM

Question: Which IC50 does the source give for `C[C@@H](Oc1ccc(S(C)(=O)=O)cc1C(=O)N1Cc2ccc(C(F)(F)F)cc2C1)C(F)(F)F` [Example 17, [5-Methanesulfonyl-2-((R)-2,2,2-trifluoro-1-methyl-ethoxy)-phenyl]-(5-trifluoromethyl-1,3-dihydro-isoindol-2-yl)-methanone] here?
Answer: 0.012 µM

Question: With `Cc1cc2c(cc1Cl)CN(C(=O)c1cc(S(C)(=O)=O)ccc1O[C@@H](C)C(F)(F)F)C2` [Example 24, (5-Chloro-6-methyl-1,3-dihydro-isoindol-2-yl)-[5-methanesulfonyl-2-((S)-2,2,2-trifluoro-1-methyl-ethoxy)-phenyl]-methanone] as the compound, how does the IC50 read?
Answer: 0.019 µM

Question: Which IC50 does the source give for `COc1cc2c(cc1Cl)CN(C(=O)c1cc(S(C)(=O)=O)ccc1O[C@@H](C)C(F)(F)F)C2` [Example 27, (5-Chloro-6-methoxy-1,3-dihydro-isoindol-2-yl)-[5-methanesulfonyl-2-((S)-2,2,2-trifluoro-1-methyl-ethoxy)-phenyl]-methanone] here?
Answer: 0.022 µM
